Measurements published in US20230085307A1, “PYRIDAZINONE COMPOUND AND HERBICIDE” (NISSAN CHEMICAL CORPORATION, priority 2019, published 2023).

Key:
late watergrass = assay: Test Example 1: herbicidal activity, application before weed generation under submerged conditions (Table 16, symbol A); format: in vivo, late watergrass (Echinochloa oryzicola)
In short: (§1)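 Emulsion formulation, water-diluted to set dose, was put onto the flooded surface (4 cm depth, alluvial soil) the same day weeds were sown and 2.5-leaf rice transplanted. After 3 weeks at 25-30 °C under glass, each species was rated 0 (≤5% kill) to 5 (≥90% kill).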

Japanese bulrush = assay: Test Example 1: herbicidal activity, application before weed generation under submerged conditions (Table 16, symbol B); format: in vivo, Japanese bulrush (Schoenoplectus juncoides)
In short: as §1

oval-leafed pondweed = assay: Test Example 1: herbicidal activity, application before weed generation under submerged conditions (Table 16, symbol C); format: in vivo, oval-leafed pondweed (Monochoria vaginalis)
In short: as §1

barnyard grass [1] = assay: Test Example 3: herbicidal effect by foliage application, Wagner pot (Table 18, symbol H); format: in vivo, barnyard grass (Echinochloa crus-galli)
In short: (§2)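 Plants were sown in alluvial soil held under 0.1–0.5 cm standing water and grown 14 days in a greenhouse at 25–30 °C. An emulsifiable formulation, water-diluted to the set dose, was then sprayed onto the foliage, and effects were scored three weeks later using previously defined criteria.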

Chinese sprangletop = assay: Test Example 3: herbicidal effect by foliage application, Wagner pot (Table 18, symbol D); format: in vivo, chinese sprangletop (Leptochloa chinensis)
In short: as §2

rice flat sedge = assay: Test Example 3: herbicidal effect by foliage application, Wagner pot (Table 18, symbol E); format: in vivo, rice flat sedge (Cyperus iria)
In short: as §2

southern crabgrass [2] = assay: Test Example 4: herbicidal effect by soil treatment (Table 19, symbol F); format: in vivo, southern crabgrass (Digitaria ciliaris)
In short: (§3)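 Scoring uses the grading scale of an earlier test, three weeks post-application. Treatment consists of spraying a diluted emulsion formulation across the surface of sterilized diluvial soil in which seeds are buried near 1.5 cm deep; boxes are kept in a greenhouse between 25° C. and 30° C.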

green foxtail [3] = assay: Test Example 4: herbicidal effect by soil treatment (Table 19, symbol G); format: in vivo, green foxtail (Setaria viridis)
In short: as §3

barnyard grass [4] = assay: Test Example 4: herbicidal effect by soil treatment (Table 19, symbol H); format: in vivo, barnyard grass (Echinochloa crus-galli)
In short: as §3

velvetleaf [5] = assay: Test Example 4: herbicidal effect by soil treatment (Table 19, symbol M); format: in vivo, velvetleaf (Abutilon theophrasti)
In short: as §3

redroot pigweed [6] = assay: Test Example 4: herbicidal effect by soil treatment (Table 19, symbol N); format: in vivo, redroot pigweed (Amaranthus retroflexus)
In short: as §3

lambsquarters [7] = assay: Test Example 4: herbicidal effect by soil treatment (Table 19, symbol O); format: in vivo, lambsquarters (Chenopodium album)
In short: as §3

southern crabgrass [8] = assay: Test Example 5: herbicidal effect by foliage application, plastic box (Table 20, symbol F); format: in vivo, southern crabgrass (Digitaria ciliaris); conditions: foliage application, three weeks after application
In short: (§4)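 Post-emergence foliar test in sterilized diluvial soil. Compound applied as water-diluted emulsion at a predetermined rate to 14-day-old plants; evaluation at three weeks.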

green foxtail [9] = assay: Test Example 5: herbicidal effect by foliage application, plastic box (Table 20, symbol G); format: in vivo, green foxtail (Setaria viridis); conditions: foliage application, three weeks after application
In short: as §4

barnyard grass [10] = assay: Test Example 5: herbicidal effect by foliage application, plastic box (Table 20, symbol H); format: in vivo, barnyard grass (Echinochloa crus-galli); conditions: foliage application, three weeks after application
In short: as §4

velvetleaf [11] = assay: Test Example 5: herbicidal effect by foliage application, plastic box (Table 20, symbol M); format: in vivo, velvetleaf (Abutilon theophrasti); conditions: foliage application, three weeks after application
In short: as §4

redroot pigweed [12] = assay: Test Example 5: herbicidal effect by foliage application, plastic box (Table 20, symbol N); format: in vivo, redroot pigweed (Amaranthus retroflexus); conditions: foliage application, three weeks after application
In short: as §4

lambsquarters [13] = assay: Test Example 5: herbicidal effect by foliage application, plastic box (Table 20, symbol O); format: in vivo, lambsquarters (Chenopodium album); conditions: foliage application, three weeks after application
In short: as §4

[14] = amount of applied herbicide 320 g/ha
[15] = amount of applied herbicide 403 g/ha

CON=C(C)CSc1ccc(-c2sc3ccc(F)cc3c2-c2c(O)c(C)nn(C)c2=O)cc1 [2-451]
Herbicidal effect, A: late watergrass (late watergrass; [14]): 2 (Herbicidal rate of 20% or more and less than 40%)
Herbicidal effect, B: Japanese bulrush (Japanese bulrush; [14]): 0 (Herbicidal rate of 5% or less (almost no effect))
Herbicidal effect, C: oval-leafed pondweed (oval-leafed pondweed; [14]): 0 (Herbicidal rate of 5% or less (almost no effect))
herbicidal effect on H: barnyard grass (barnyard grass [1]; [14]): 5 (Herbicidal rate of 90% or more (almost completely withered))
herbicidal effect on D: Chinese sprangletop (Chinese sprangletop; [14]): 3 (Herbicidal rate of 40% or more and less than 70%)
herbicidal effect on E: rice flat sedge (rice flat sedge; [14]): 5 (Herbicidal rate of 90% or more (almost completely withered))
herbicidal effect, F: southern crabgrass (southern crabgrass [2]; [14]): 0 (Herbicidal rate of 5% or less (almost no effect))
herbicidal effect, G: green foxtail (green foxtail [3]; [14]): 0 (Herbicidal rate of 5% or less (almost no effect))
herbicidal effect, H: barnyard grass (barnyard grass [4]; [14]): 0 (Herbicidal rate of 5% or less (almost no effect))
herbicidal effect, M: velvetleaf (velvetleaf [5]; [14]): 3 (Herbicidal rate of 40% or more and less than 70%)
herbicidal effect, N: redroot pigweed (redroot pigweed [6]; [14]): 5 (Herbicidal rate of 90% or more (almost completely withered))
herbicidal effect, O: lambsquarters (lambsquarters [7]; [14]): 4 (Herbicidal rate of 70% or more and less than 90%)
F: southern crabgrass, herbicidal effect grade (southern crabgrass [8]; 320 g/ha): 4 (Herbicidal rate of 70% or more and less than 90%)
G: green foxtail, herbicidal effect grade (green foxtail [9]; 320 g/ha): 5 (Herbicidal rate of 90% or more (almost completely withered))
H: barnyard grass, herbicidal effect grade (barnyard grass [10]; 320 g/ha): 5 (Herbicidal rate of 90% or more (almost completely withered))
M: velvetleaf, herbicidal effect grade (velvetleaf [11]; 320 g/ha): 5 (Herbicidal rate of 90% or more (almost completely withered))
N: redroot pigweed, herbicidal effect grade (redroot pigweed [12]; 320 g/ha): 5 (Herbicidal rate of 90% or more (almost completely withered))
O: lambsquarters, herbicidal effect grade (lambsquarters [13]; 320 g/ha): 5 (Herbicidal rate of 90% or more (almost completely withered))

CC[S+]([O-])c1cccc(-c2sc3ccc(F)cc3c2-c2c(O)c(C)nn(C)c2=O)c1 (stereo not drawn) [2-460]
Herbicidal effect, A: late watergrass (late watergrass; [15]): 3 (Herbicidal rate of 40% or more and less than 70%)
Herbicidal effect, B: Japanese bulrush (Japanese bulrush; [15]): 0 (Herbicidal rate of 5% or less (almost no effect))
Herbicidal effect, C: oval-leafed pondweed (oval-leafed pondweed; [15]): 0 (Herbicidal rate of 5% or less (almost no effect))
herbicidal effect on H: barnyard grass (barnyard grass [1]; [15]): 4 (Herbicidal rate of 70% or more and less than 90%)
herbicidal effect on D: Chinese sprangletop (Chinese sprangletop; [15]): 0 (Herbicidal rate of 5% or less (almost no effect))
herbicidal effect on E: rice flat sedge (rice flat sedge; [15]): 0 (Herbicidal rate of 5% or less (almost no effect))
herbicidal effect, F: southern crabgrass (southern crabgrass [2]; [15]): 0 (Herbicidal rate of 5% or less (almost no effect))
herbicidal effect, G: green foxtail (green foxtail [3]; [15]): 0 (Herbicidal rate of 5% or less (almost no effect))
herbicidal effect, H: barnyard grass (barnyard grass [4]; [15]): 0 (Herbicidal rate of 5% or less (almost no effect))
herbicidal effect, M: velvetleaf (velvetleaf [5]; [15]): 0 (Herbicidal rate of 5% or less (almost no effect))
herbicidal effect, N: redroot pigweed (redroot pigweed [6]; [15]): 3 (Herbicidal rate of 40% or more and less than 70%)
herbicidal effect, O: lambsquarters (lambsquarters [7]; [15]): 3 (Herbicidal rate of 40% or more and less than 70%)
F: southern crabgrass, herbicidal effect grade (southern crabgrass [8]; 403 g/ha): 0 (Herbicidal rate of 5% or less (almost no effect))
G: green foxtail, herbicidal effect grade (green foxtail [9]; 403 g/ha): 2 (Herbicidal rate of 20% or more and less than 40%)
H: barnyard grass, herbicidal effect grade (barnyard grass [10]; 403 g/ha): 3 (Herbicidal rate of 40% or more and less than 70%)
M: velvetleaf, herbicidal effect grade (velvetleaf [11]; 403 g/ha): 3 (Herbicidal rate of 40% or more and less than 70%)
N: redroot pigweed, herbicidal effect grade (redroot pigweed [12]; 403 g/ha): 3 (Herbicidal rate of 40% or more and less than 70%)
O: lambsquarters, herbicidal effect grade (lambsquarters [13]; 403 g/ha): 3 (Herbicidal rate of 40% or more and less than 70%)

Cc1nn(C)c(=O)c(-c2c(-c3ccoc3)sc3ccc(F)cc23)c1O [2-461]
Herbicidal effect, A: late watergrass (late watergrass; [14]): 3 (Herbicidal rate of 40% or more and less than 70%)
Herbicidal effect, B: Japanese bulrush (Japanese bulrush; [14]): 0 (Herbicidal rate of 5% or less (almost no effect))
Herbicidal effect, C: oval-leafed pondweed (oval-leafed pondweed; [14]): 0 (Herbicidal rate of 5% or less (almost no effect))
herbicidal effect on H: barnyard grass (barnyard grass [1]; [14]): 4 (Herbicidal rate of 70% or more and less than 90%)
herbicidal effect on D: Chinese sprangletop (Chinese sprangletop; [14]): 0 (Herbicidal rate of 5% or less (almost no effect))
herbicidal effect on E: rice flat sedge (rice flat sedge; [14]): 4 (Herbicidal rate of 70% or more and less than 90%)
herbicidal effect, F: southern crabgrass (southern crabgrass [2]; [14]): 0 (Herbicidal rate of 5% or less (almost no effect))
herbicidal effect, G: green foxtail (green foxtail [3]; [14]): 0 (Herbicidal rate of 5% or less (almost no effect))
herbicidal effect, H: barnyard grass (barnyard grass [4]; [14]): 0 (Herbicidal rate of 5% or less (almost no effect))
herbicidal effect, M: velvetleaf (velvetleaf [5]; [14]): 0 (Herbicidal rate of 5% or less (almost no effect))
herbicidal effect, N: redroot pigweed (redroot pigweed [6]; [14]): 2 (Herbicidal rate of 20% or more and less than 40%)
herbicidal effect, O: lambsquarters (lambsquarters [7]; [14]): 1 (Herbicidal rate of 5% or more and less than 20%)
F: southern crabgrass, herbicidal effect grade (southern crabgrass [8]; 320 g/ha): 2 (Herbicidal rate of 20% or more and less than 40%)
G: green foxtail, herbicidal effect grade (green foxtail [9]; 320 g/ha): 3 (Herbicidal rate of 40% or more and less than 70%)
H: barnyard grass, herbicidal effect grade (barnyard grass [10]; 320 g/ha): 3 (Herbicidal rate of 40% or more and less than 70%)
M: velvetleaf, herbicidal effect grade (velvetleaf [11]; 320 g/ha): 4 (Herbicidal rate of 70% or more and less than 90%)
N: redroot pigweed, herbicidal effect grade (redroot pigweed [12]; 320 g/ha): 4 (Herbicidal rate of 70% or more and less than 90%)
O: lambsquarters, herbicidal effect grade (lambsquarters [13]; 320 g/ha): 3 (Herbicidal rate of 40% or more and less than 70%)

C#CCSc1ccc(-c2sc3ccc(F)cc3c2-c2c(O)c(C)nn(C)c2=O)cc1 [2-465]
Herbicidal effect, A: late watergrass (late watergrass; [14]): 4 (Herbicidal rate of 70% or more and less than 90%)
Herbicidal effect, B: Japanese bulrush (Japanese bulrush; [14]): 2 (Herbicidal rate of 20% or more and less than 40%)
Herbicidal effect, C: oval-leafed pondweed (oval-leafed pondweed; [14]): 3 (Herbicidal rate of 40% or more and less than 70%)
herbicidal effect on H: barnyard grass (barnyard grass [1]; [14]): 5 (Herbicidal rate of 90% or more (almost completely withered))
herbicidal effect on D: Chinese sprangletop (Chinese sprangletop; [14]): 3 (Herbicidal rate of 40% or more and less than 70%)
herbicidal effect on E: rice flat sedge (rice flat sedge; [14]): 5 (Herbicidal rate of 90% or more (almost completely withered))
herbicidal effect, F: southern crabgrass (southern crabgrass [2]; [14]): 0 (Herbicidal rate of 5% or less (almost no effect))
herbicidal effect, G: green foxtail (green foxtail [3]; [14]): 0 (Herbicidal rate of 5% or less (almost no effect))
herbicidal effect, H: barnyard grass (barnyard grass [4]; [14]): 0 (Herbicidal rate of 5% or less (almost no effect))
herbicidal effect, M: velvetleaf (velvetleaf [5]; [14]): 0 (Herbicidal rate of 5% or less (almost no effect))
herbicidal effect, N: redroot pigweed (redroot pigweed [6]; [14]): 5 (Herbicidal rate of 90% or more (almost completely withered))
herbicidal effect, O: lambsquarters (lambsquarters [7]; [14]): 4 (Herbicidal rate of 70% or more and less than 90%)
F: southern crabgrass, herbicidal effect grade (southern crabgrass [8]; 320 g/ha): 2 (Herbicidal rate of 20% or more and less than 40%)
G: green foxtail, herbicidal effect grade (green foxtail [9]; 320 g/ha): 5 (Herbicidal rate of 90% or more (almost completely withered))
H: barnyard grass, herbicidal effect grade (barnyard grass [10]; 320 g/ha): 5 (Herbicidal rate of 90% or more (almost completely withered))
M: velvetleaf, herbicidal effect grade (velvetleaf [11]; 320 g/ha): 4 (Herbicidal rate of 70% or more and less than 90%)
N: redroot pigweed, herbicidal effect grade (redroot pigweed [12]; 320 g/ha): 5 (Herbicidal rate of 90% or more (almost completely withered))
O: lambsquarters, herbicidal effect grade (lambsquarters [13]; 320 g/ha): 5 (Herbicidal rate of 90% or more (almost completely withered))
